Earlier results as cited in patent publication US20100047803A1, “BIOMARKERS FOR ACETAMINOPHEN TOXICITY” (priority 2008, published 2010).

Experiments:
[1] = administration after hepatic failure has developed
[2] = tested on: CYP2E1, CYP1A2, and CYP3A4; conditions: by CYP2E1, CYP1A2, and CYP3A4

| share of acetaminophen converted to NAPQI [2] | SMILES | reduction in mortality [1] |
| --- | --- | --- |
|  | CC(=O)N[C@@H](CS)C(=O)O [N-acetylcysteine] | 21-28% |
| 5 to 9% | CC(=O)Nc1ccc(O)cc1 [acetaminophen, Acetaminophen] |  |
